Assay results reported in US8722715B2, “Antimicrobial oxazolidinone, hydantoin and imidazolidinone compositions” (NovaBay Pharmaceuticals, priority 2008, dated 2014).

Legend:
Format in all cases: cell-based
[1] = test system: Staphylococcus aureus (ATCC 29213); assay: Antimicrobial activity, MBC, S. aureus ATCC 29213; details: 1 h at room temperature
Description: (§1) To determine antimicrobial activity of compounds of the present disclosure, Escherichia coli (ATCC 25922), Staphylococcus aureus (ATCC 29213), Pseudomonas aeruginosa (ATCC 27853), and Candida albicans (ATCC 10231) were used in primary screening. In addition, Escherichia coli (MCC 80392), Staphylococcus aureus (MCC 91731), Pseudomonas aeruginosa (MCC 4438), and Candida albicans (MCC 50319), provided by Alcon Laboratories, Fort Worth, Tex., were used. The microbial cultures were diluted in sterile saline pH 4 to prepare inocula. Test compounds were titrated by stepwise two-fold dilutions in sterile saline pH 4. A total of 1.0×10^5 to 1.0×10^6 Colony Forming Units (CFU)/mL microbe was added to each tube, mixed by gentle vortexing, and then incubated at room temperature for 1 h. Microbial plating on Petri dishes (Tryptic Soy agar or Saboraud's Dextrose agar) was performed immediately after the designated exposure after neutralization of the test article dilutions in Dey-Engley Broth. Plates were incubated at 37° C., and the numbers of microbes were counted by direct colony count to quantitate the surviving microbes as CFU/mL. Positive growth controls were made with sterile 0.9% saline. Compounds were dissolved in unbuffered isotonic saline (SAL) or phosphate buffered saline (PBS) at pH 4 or pH 7 (using HCl and/or NaOH as needed). All compounds were tested three times. The results are tabulated to show the comparison of antimicrobial effectiveness range of the compounds. Data shown are the Minimum Bactericidal Concentration (MBC) or Minimum Fungicidal Concentration (MFC) (≧99.9% kill) in μg/mL.

[2] = test system: Escherichia coli (ATCC 25922); assay: Antimicrobial activity, MBC, E. coli ATCC 25922; details: 1 h at room temperature
Description: as §1

[3] = test system: Candida albicans (ATCC 10231); assay: Antimicrobial activity, MFC, C. albicans ATCC 10231; details: 1 h at room temperature
Description: as §1

[4] = test system: mouse fibroblast cells (ATCC CCL-1, L929); assay: Cytotoxicity, WST-8 colorimetric assay; details: pH 4 (Sal), 60 min exposure, WST-8 read after 18-20 hours
Description: Cytotoxicity is assessed by a colorimetric assay system using the Dojindo™ cell counting kit containing 2-(2-methoxy-4-nitrophenyl)-3-(4-nitrophenyl)-5-(2,4-disulfophenyl)-2H-tetrazolium, monosodium salt (WST-8). In this assay, the WST-8 reagent is bioreduced by cellular dehydrogenases to a formazan product that is highly soluble in tissue culture medium. The orange formazan, which is produced only by live cells, is a direct measure of cell viability and can be read spectrophotometrically (e.g., evaluation of a soluble tetrazolium/formazan assay for cell growth and drug sensitivity in culture using human and other tumor cell lines is described by D. A. Scudiero et al., Cancer Res., 48(17), 4827-33 (1988). Similar approaches for determining the cell viability are known in the art.
In a standard assay, mouse fibroblast cells (ATCC CCL-1, L929), are cultured in Minimum Essential Medium, α-medium supplemented with 10% heat inactivated fetal bovine serum, L-glutamine, penicillin and streptomycin. Cells are trypsinized and counted under the microscope and seeded at 1.5×10^4 total cells per 100 μL per well of a flat-bottom 96-well plate in order to achieve ˜80% confluence after overnight incubation at 37° C. […]
Test articles were prepared as 2-fold serial dilutions and 170 μL of each dilution was added into each of 4-wells (total volume per well=200 μL). […] Absorbance was read at 450 nm with reference wavelength at 750 nm using Molecular Device SpectraMax M5 plate reader. […]
The CT50 value for each compound was calculated from the absorbance values (A450/750) and is defined as the concentration of test article that results in survival of 50% of the cells following treatment. The absorbance A450/750 from each well of untreated cells and from each well within the dilution series was measured. […] Next, a non-linear regression (curve fit) analysis was performed on all the absorbance data measured from the dilution series, including the absorbance data obtained from wells of the untreated control cells. […]

[5] = test system: Candida albicans (MCC 50319); assay: Antimicrobial activity, MFC, C. albicans MCC 50319; details: 1 h at room temperature
Description: as §1, with “The results are tabulated to show the comparison of antimicrobial effectiveness range of the compounds. Data shown are the Minimum Bactericidal Concentration (MBC) or Minimum Fungicidal Concentration (MFC) (≧99.9% kill) in μg/mL.” left out

[6] = test system: Pseudomonas aeruginosa (ATCC 27853); assay: Antimicrobial activity, MBC, P. aeruginosa ATCC 27853; details: pH 7 (PBS), 1 h at room temperature
Description: as §1, with “The results are tabulated to show the comparison of antimicrobial effectiveness range of the compounds. Data shown are the Minimum Bactericidal Concentration (MBC) or Minimum Fungicidal Concentration (MFC) (≧99.9% kill) in μg/mL.” left out

[7] = test system: Staphylococcus aureus (MCC 91731); assay: Antimicrobial activity, MBC, S. aureus MCC 91731; details: 1 h at room temperature
Description: as §1, with “The results are tabulated to show the comparison of antimicrobial effectiveness range of the compounds. Data shown are the Minimum Bactericidal Concentration (MBC) or Minimum Fungicidal Concentration (MFC) (≧99.9% kill) in μg/mL.” left out

[8] = test system: Escherichia coli (MCC 80392); assay: Antimicrobial activity, MBC, E. coli MCC 80392; details: 1 h at room temperature
Description: as §1, with “The results are tabulated to show the comparison of antimicrobial effectiveness range of the compounds. Data shown are the Minimum Bactericidal Concentration (MBC) or Minimum Fungicidal Concentration (MFC) (≧99.9% kill) in μg/mL.” left out

| Molecule | Minimum Bactericidal Concentration (MBC) (≧99.9% kill) ([1]; pH 4 (Sal)) [µg/mL] | Minimum Bactericidal Concentration (MBC) (≧99.9% kill) ([1]; pH 7 (PBS)) [µg/mL] | Minimum Bactericidal Concentration (MBC) (≧99.9% kill) ([2]; pH 4 (Sal)) [µg/mL] | Minimum Bactericidal Concentration (MBC) (≧99.9% kill) ([2]; pH 7 (PBS)) [µg/mL] | Minimum Fungicidal Concentration (MFC) (≧99.9% kill) ([3]; pH 4 (Sal)) [µg/mL] | Minimum Fungicidal Concentration (MFC) (≧99.9% kill) ([3]; pH 7 (PBS)) [µg/mL] | CT50 (concentration of test article that results in survival of 50% of the cells) [4] [mM] | Minimum Fungicidal Concentration (MFC) (≧99.9% kill) ([5]; pH 4 (Sal)) [µg/mL] | Minimum Fungicidal Concentration (MFC) (≧99.9% kill) ([5]; pH 7 (PBS)) [µg/mL] | Minimum Bactericidal Concentration (MBC) (≧99.9% kill) [6] [µg/mL] | Minimum Bactericidal Concentration (MBC) (≧99.9% kill) ([7]; pH 4 (Sal)) [µg/mL] | Minimum Bactericidal Concentration (MBC) (≧99.9% kill) ([7]; pH 7 (PBS)) [µg/mL] | Minimum Bactericidal Concentration (MBC) (≧99.9% kill) ([8]; pH 4 (Sal)) [µg/mL] | Minimum Bactericidal Concentration (MBC) (≧99.9% kill) ([8]; pH 7 (PBS)) [µg/mL] |
| --- | --- | --- | --- | --- | --- | --- | --- | --- | --- | --- | --- | --- | --- | --- |
| 2-(3-Chloro-4,4-dimethyl-2,5-dioxoimidazolidin-1-yl)-N,N,N-trimethylethanaminium chloride [Compound 22-48] | >128 | 16 | 128 | 4 | 1024 | 128 | – | – | – | – | – | – | – | – |
| CC1(CS(=O)(=O)O)COC(=O)N1Cl (centres unmarked) [Compound 22-01, (3-chloro-4-methyl-2-oxooxazolidin-4-yl)methanesulfonic acid] | 256 | 256 | 256 | 128 | >512 | 1024 | 1.1 | 128 | 128 | 256 | 16 | 16 | 2 | 16 |
| CC1(C[N+](C)(C)C)COC(=O)N1Cl.[Cl-] (centres unmarked) [Compound 22-04, 1-(3-Chloro-4-methyl-2-oxooxazolidin-4-yl)-N,N,N-trimethylmethanaminium chloride] | 64 | – | 16 | – | >256 | – | – | – | – | – | – | – | – | – |
| CN1C(=O)N(Cl)C(C)(C[N+](C)(C)C)C1=O.[Cl-] (centres unmarked) [Compound 22-27, 1-(3-chloro-1,4-dimethyl-2,5-dioxoimidazolidin-4-yl)-N,N,N-trimethylmethanaminium chloride] | 64 | – | 16 | – | >256 | – | – | – | – | – | – | – | – | – |
| C[N+]1(C)CCC2(CC1)CN(Cl)C(=O)O2.[Cl-] [Compound 22-36, 3-chloro-8,8-dimethyl-2-oxo-1-oxa-3-aza-8-azoniaspiro[4.5]decane chloride] | 512 | 32 | 256 | 16 | – | 256 | 0.7 | – | – | – | – | – | – | – |
| CC[N+](C)(C)CC1(C)COC(=O)N1Cl.[Cl-] (centres unmarked) [Compound 22-38, N-((3-chloro-4-methyl-2-oxooxazolidin-4-yl)methyl)-N,N-dimethylethanaminium chloride] | 64 | 4 | 16 | 2 | – | 8 | 0.86 | – | – | – | – | – | – | – |
